According to patent publication US8916702B2 (priority 2012, dated 2014):
Like-named read-outs stand apart in the source and are kept apart here.

System: HCV pseudoparticles (genotype 1a HCV E1 and E2 envelope, H77C isolate)
Assay: microbe, parasite or virus in culture
Format: cell-based
Details: Hepatitis C virus
[1] = Huh-7, 48 h, HCV pseudoparticle infection of Huh7 cells, luciferase 2 days after infection, average of duplicates
[2] = Huh-7, 48 h, read-out: Activity (EC50 class), HCV pseudoparticle infection of Huh7 cells, luciferase 2 days after infection, EC50 expressed as class A/B
[3] = Huh-7, read-out: Activity (EC50 class), HCV pseudoparticles (genotype 1a, H77C) in Huh7 cells, EC50 expressed as class A/B
[4] = Huh-7, 48 h, read-out: Activity (EC50 class), HCV pseudoparticles, Huh7 cells, luciferase 2 days after infection, average of duplicates
[5] = Huh-7, 48 h, HCV pseudoparticles (genotype 1a, H77C) in Huh7 cells, average of duplicate, luciferase 2 days after infection

SMILES	EC50 [2]	EC50 [3]	further results
COC(=O)[C@H](CNC(=O)C(N)=O)NC(=O)c1ccc(Nc2nc(NC3(c4ccc(Cl)cc4)CC3)nc(OCC(F)(F)F)n2)cc1 [Compound 1002, (S)-methyl 3-(2-amino-2-oxoacetamido)-2-(4-(4-(1-(4-chlorophenyl)cyclopropylamino)-6-(2,2,2-trifluoroethoxy)-1,3,5-triazin-2-ylamino)benzamido)propanoate]	0.01 to 10 nM	–	EC50 [1]: 2.11 nM
CCC(CC)NC(=O)C(=O)NC[C@@H](NC(=O)c1ccc(Nc2nc(NC3(c4ccc(Cl)cc4)CC3)nc(OCC(F)(F)F)n2)cc1)C(=O)OC [Compound 1063]	0.01 to 10 nM	–	–
NC(=O)c1ccc(NC(=O)C(=O)NC/C(=N/C(=O)c2ccc(Nc3nc(NC4(c5ccc(Cl)cc5)CC4)nc(OCC(F)(F)F)n3)cc2)C(=O)O)cc1 [Compound 3156]	–	0.01 to 10 nM	–
CCC1(CC)CC1CNC(=O)C(=O)NCC[C@H](NC(=O)c1ccc(Nc2nc(NC3(c4ccc(Cl)cc4)CC3)nc(OCC(F)(F)F)n2)cc1)C(=O)O (stereo partly shown) [Compound 1209]	0.01 to 10 nM	–	–
COC(=O)/C(CCNC(=O)C(=O)Nc1cccc(S(=O)(=O)C2CCCCC2)c1)=N\C(=O)c1ccc(Nc2nc(NC3(c4ccc(Cl)cc4)CC3)nc(OCC(F)(F)F)n2)cc1 [Compound 3595]	–	0.01 to 10 nM	–
CC(C)(CNC(=O)C(=O)Nc1nc2cc(O)ccc2s1)CNC(=O)c1ccc(Nc2nc(NC3(c4ccc(Cl)cc4)CC3)nc(OCC(F)(F)F)n2)cc1 [Compound 3801]	–	–	EC50 [4]: 0.01 to 10 nM
O=C(NCC[C@H](NC(=O)c1ccc(Nc2nc(NC3(c4ccc(Cl)cc4)CC3)nc(OCC(F)(F)F)n2)cc1)C(=O)O)C(=O)Nc1ccc(N2CCN(Cc3ccccc3)CC2)cc1 [Compound 3232]	–	0.01 to 10 nM	–
CC(C)c1ccc(NC(=O)C(=O)NC[C@H](NC(=O)c2ccc(Nc3nc(NC4(c5ccc(Cl)cc5)CC4)nc(OCC(F)(F)F)n3)cc2)C(=O)O)cc1 [Compound 3295]	–	0.01 to 10 nM	–
CC(C)(CNC(=O)C(=O)Nc1ccnn1-c1ccccc1)CNC(=O)c1ccc(Nc2nc(NC3(c4ccc(Cl)cc4)CC3)nc(OCC(F)(F)F)n2)cc1 [Compound 3029]	–	0.01 to 10 nM	EC50 [5]: 0.071 nM
O=C(NCC(O)CNC(=O)c1ccc(Nc2nc(NC3(c4ccc(Cl)cc4)CC3)nc(OCC(F)(F)F)n2)cc1)C(=O)Nc1ccc(F)cc1 (stereo not shown) [Compound 3365]	–	0.01 to 10 nM	EC50 [5]: 0.024 nM
O=C(NCC[C@H](NC(=O)c1ccc(Nc2nc(NC3(c4ccc(Cl)cc4)CC3)nc(OCC(F)(F)F)n2)cc1)C(=O)O)C(=O)Nc1cccc(Oc2ccccc2)c1 [Compound 3620]	–	–	EC50 [4]: 0.01 to 10 nM
COC(=O)[C@H](CCNC(=O)C(=O)NCCc1cccnc1)NC(=O)c1ccc(Nc2nc(NC3(c4ccc(Cl)cc4)CC3)nc(OCC(F)(F)F)n2)cc1 [Compound 1316]	0.01 to 10 nM	–	EC50 [1]: 0.57 nM
CC(C)(CNC(=O)C(=O)NCc1cccc(F)c1)CNC(=O)c1ccc(Nc2nc(NC3(c4ccc(Cl)cc4)CC3)nc(OCC(F)(F)F)n2)cc1 [Compound 3004]	–	0.01 to 10 nM	–
CC(C)OC(=O)c1ccc(NC(=O)C(=O)NCC(C)(C)CNC(=O)c2ccc(Nc3nc(NC4(c5ccc(Cl)cc5)CC4)nc(OCC(F)(F)F)n3)cc2)cc1 [Compound 3259]	–	0.01 to 10 nM	–
COCc1ccc(NC(=O)C(=O)NC[C@H](NC(=O)c2ccc(Nc3nc(NC4(c5ccc(Cl)cc5)CC4)nc(OCC(F)(F)F)n3)cc2)C(=O)O)cc1 [Compound 3288]	–	0.01 to 10 nM	–
CC(CNC(=O)C(=O)Nc1cc(F)cc(F)c1)CNC(=O)c1ccc(Nc2nc(NC3(c4ccc(Cl)cc4)CC3)nc(OCC(F)(F)F)n2)cc1 (stereo not shown) [Compound 3469]	–	0.01 to 10 nM	EC50 [5]: 0.035 nM
NC(=O)NCc1ccc(NC(=O)C(=O)NC[C@H](NC(=O)c2ccc(Nc3nc(NC4(c5ccc(Cl)cc5)CC4)nc(OCC(F)(F)F)n3)cc2)C(=O)O)cc1 [Compound 3281]	–	0.01 to 10 nM	EC50 [5]: 1.29 nM
COc1ccc(CNC(=O)C(=O)NCC[C@H](NC(=O)c2ccc(Nc3nc(NC4(c5ccc(Cl)cc5)CC4)nc(OCC(F)(F)F)n3)cc2)C(=O)O)cc1OC [Compound 1184]	0.01 to 10 nM	–	–
O=C(NCC[C@H](NC(=O)c1ccc(Nc2nc(NC3(c4ccc(Cl)cc4)CC3)nc(OCC(F)(F)F)n2)cc1)C(=O)O)C(=O)NCC1(CN2CCCN2)CC1 [Compound 1443]	0.01 to 10 nM	–	–
